Test results reported in US20160010138A1, “RAPID DETERMINATION OF MICROBIAL DROWTH AND ANTIMICROBIAL SUSEPTABILITY” (priority 2013, published 2016).
Where two headings read alike, the source gives them in different places.

Key:
[1] = tested on: Pseudomonas aeruginosa (PSAE); experiment: MADM system resistance phenotype tests on respiratory specimens; type: cell-based; conditions: for resistance phenotype result (S/R), MADM: ID PSAE
Experimental: (§1) These specimens were prepped for introduction into the MADM system. The system performed quantitative ID for Staphylococcus aureus (STAU), Pseudomonas aeruginosa (PSAE), and Acinetobacter spp. (ABCC). Concurrent quantitative culture was performed on specimens. The MADM system performed resistance phenotype tests on STAU-containing specimens for cefoxitin (FOX) MRSA phenotyping and clindamycin (CLI) resistance. The system tested ABCC- and PSAE-containing specimens for amikacin (AN) and imipenem (IMP) resistance.
(§2) Specimen preparation used a brief procedure to release bacteria, reduce imaging background, and suspend bacteria in a low ionic strength buffer. […] The remaining 62 specimens were tested using the MADM system.
(§3) 20 μL samples of prepared specimen were pipetted into independent flowcell channels and a low-voltage electrical field was applied for 5 minutes. The electrical field concentrated bacteria onto a functional surface coating that immobilized the bacteria on the lower flowcell surface. Each flowcell channel received only one type of test reagent solution that contained a selective agent if required (only for channels used to test AB, sulbactam 32 μg/mL).
(§4) The instrument acquired images at 10-minutes intervals for 180 minutes, using 10 fields of view in each flowcell channel through a 20× objective. Imaging used darkfield illumination. Identification variables included response to selective agents (AB with sulbactam), cell morphology, growth morphology, and growth rate.
(§5) Identification algorithms applied to each individual immobilized bacterial cell. The system measured the amount of change in mass over time to compute growth rates. Identification consisted of computing and combining probability scores for morphology, response to selective media, and growth rates to produce a receiver operating characteristic curve (ROC) to derive classification criteria.

[2] = tested on: Pseudomonas aeruginosa (PSAE); type: cell-based; conditions: ID PSAE, culture result
Description: A total of 281 de-identified remnant respiratory specimens were collected from hospital and commercial sources. The specimens included 25 endotracheal aspirates (ETA) of unknown age obtained from a specimen vendor. Also included were 230 mini-bronchoalveolar lavage (mini-BAL) and 26 ETA specimens obtained from Denver Health Medical Center (DHMC). DHMC specimens were 7-21 days old. AST results were available for all mini-BAL specimens but not for ETA. Accompanying reports also included semi-quantitative ID used to select 92 bacteria-positive specimens for analysis using the MADM system. Targets included Pseudomonas aeruginosa, Acinetobacter baumannii complex, and Staphylococcus aureus. Controls used standard culturing methods (Cx).
as §1

[3] = tested on: Acinetobacter spp. (ABCC); experiment: MADM system resistance phenotype tests on respiratory specimens; type: cell-based, Acinetobacter sp.
Experimental: as §1, §2, §3, §4, §5

Steno = experiment: MADM (BACcel) phenotype/sensitivity by growth analysis, surveillance mini-BAL; type: cell-based, S. maltophilia
Experimental: (§6) Adult MICU patients with identified surrogate were included within 72 hours of intubation and if anticipated to require MV for >48 h. Moribund state or pregnancy were exclusions. Surveillance mini-BAL (Combicath, Plastimed) was performed on Day 1, 3, 5, 7 and 10 of MV. Samples were split and processed for both a) routine respiratory quantitative microbiological culture and sensitivity assays (>48 h result availability) and b) rapid (<8 hour) flowcell/surface-capture assays using the MADM system. Viable microorganisms were identified using growth analysis enhanced by a focused VAP antibody panel (S. aureus, P. aeruginosa, A. baumannii). Untypable organisms were also reported. Sensitivity was assessed using growth analysis. Attending physicians were blinded to MADM system results.
(§7) BAL sample were prepared, removing debris and separating microorganisms from other sample material. Sample microorganisms were introduced into a multichannel fluidic cassette as described elsewhere herein. Bacteria were concentrated and retained on the lower surface of all flowcells using low-voltage electrical field (5 min) Antibody labeling of bacteria in flowcells was used to aid identification.
(§8) The automated digital microscopy system was used to perform darkfield imaging of 10 fields of view every 10 minutes for 180 minutes in each flowcell channel. Initial epifluorescence imaging was also performed for antibody detection. […] Identification consisted of probability scores based on microorganism morphology and growth rates. Antibody labeling identification data was also incorporated. Observed microorganisms were then classified as STAU, PSAE, or non-target. Antibiotic responses were used to aid identification when appropriate. Quantitation was performed by counting identified microorganisms and computing original specimen CFU/mL.

Enteric = experiment: as above; type: cell-based; conditions: Spec# 005-D7, BACcel ID Enteric, 1.26 × 10^5 CFU/ml
Experimental: as §6
BAL sample were prepared, removing debris and separating microorganisms from other sample material. Sample microorganisms were introduced into a multichannel fluidic cassette as described elsewhere herein. […]
The automated digital microscopy system was used to perform darkfield imaging of 10 fields of view every 10 minutes for 180 minutes in each flowcell channel. […] Quantitation was performed by counting identified microorganisms and computing original specimen CFU/mL.

[4] = tested on: Staphylococcus aureus (STAU); experiment: MADM system resistance phenotype tests on respiratory specimens; type: cell-based; conditions: ID STAU, MRSA by FOX
Experimental: (§9) (ABCC). Concurrent quantitative culture was performed on specimens.
Specimen preparation used a brief procedure to release bacteria, reduce imaging background, and suspend bacteria in a low ionic strength buffer. […] We rejected 10 samples with heavy interfering background when dilution to OD600=0.3 yielded organism counts inadequate for analysis. We rejected 7 samples for other technical deficiencies. The remaining 62 specimens were tested using the MADM system.
as §3, §4, §5

[5] = tested on: Staphylococcus aureus (STAU); experiment: Culture (Cx) / hospital AST comparator on respiratory specimens; type: cell-based; conditions: for resistance phenotype result (S/R), Cx: ID STAU, culture result, MRSA by oxacillin
Experimental: DHMC specimens were 7-21 days old. […] Controls used standard culturing methods (Cx).
as §9

STAU = experiment: MADM (BACcel) phenotype/sensitivity by growth analysis, surveillance mini-BAL; type: cell-based, S. aureus
Experimental: as §6, §7, §8

E. coli = experiment: Membrane potential indicator staining; type: cell-based; conditions: 10 µg/ml DiBAC4(3), 15 min, room temp
Description: (§10) Physiologic indicators of active bacteria include indicators of growth, responsiveness to external stimulus, transcription, translation, energy dependent activity, enzyme activity, and an intact permeability barrier. The indicators tested experimentally were grouped according to the following functional categories of physiologic states to which they are responsive, which included indicators of respiratory and metabolic activity, and membrane integrity.
Active bacterial cells maintain a proton gradient across their cell membranes, creating a membrane potential that may be measured using fluorescent dyes. However, the dyes used in this study to evaluate membrane potential are toxic to bacteria and can only be used as an endpoint assay.
DiBAC4(3) (Molecular Probes) is an anionic dye that enters depolarized cells (i.e., cells lacking a membrane potential) and fluoresces in the […] channel when it binds to intracellular proteins or membranes. Using this indicator, 18.5% of an overnight refrigerator stock (control) and 95% of heat-killed E. coli stained with 10 µg/ml DiBAC4(3) after a 15 min incubation period at room temp.

[6] = tested on: Klebsiella pneumoniae (KP) clinical isolates; experiment: KPC assay: growth in ertapenem with and without boronic acid inhibitor (MADM); type: cell-based
Experimental: The bottom surface was coated with poly-L-lysine to immobilize live bacteria.
Clinical isolates of Pseudomonas aeruginosa (PA), Acinetobacter baumannii (AB), and Klebsiella pneumoniae (KP) were tested. […] Test results are expressed as nonsusceptible (NS) or susceptible (S).
Isolates were grown on blood agar, suspended colonies in tryptic soy broth for 2 hours, then centrifuged and resuspended log-phase bacteria in low ionic strength electrokinetic buffer.
MADM system analysis was performed using a 32-channel disposable fluidic cassette (FIG. 4A) to measure growth of immobilized bacteria. […] Klebsiella pneumoniae (KP) clinical isolates were tested for ertapenem (ETP) nonsusceptibility at 16 μg/mL with and without the inhibitors aminophenyl boronic acid (APB) at 300 μg/mL or benzo(b)thiophene-2-boronic acid (BTB) at 50 μg/mL to identify putative KPC-positive strains.
10 μL aliquots of 5E+7 CFU/mL were pipetted into separate flowcells for each isolate and test condition. Microorganisms were electrokinetically concentrated onto the flowcell detection surface with an electrical field to the positively charged lower surface to immobilize cells and yield 10-100 bacteria per field of view (FIG. 4B). […] The system measured growth at 10-minute intervals. […] Growth was evaluated, interpreting results for PA, AB, and KP-ETP as NS if growth had not arrested within 3 hours. […]

[7] = tested on: heat-killed cells and isopropyl alcohol killed cells; experiment: Esterase activity indicator fluorescence in killed cells (MADM system); type: cell-based
Description: as §10
Carboxyfluorescein diacetate/carboxyfluorescein diacetate succinimidyl ester (CFDA/CFDA-SE; Molecular Probes) compounds are converted into amine-reactive fluorescent molecules when cleaved by esterases present within active cells. When CFDA-SE is taken up by live cells, the fluorescent molecule produced by esterase cleavage and amine reaction is retained inside the cell. […] The product formed by uptake and processing of CFDA, on the other hand, should be more “leaky” over time and may exit a dead cell. […] Shorter delay times have not yet been investigated but may be compatible with avoiding false positive results while providing a shorter assay period.

[8] = Spec# 006-D1, BACcel ID Steno, 7.68 × 10^5 CFU/ml
[9] = Spec# 006-D3, BACcel ID Steno, 1.60 × 10^4 CFU/ml
[10] = dyes added immediately after heat or isopropyl alcohol treatment

NCC[C@H](O)C(=O)N[C@@H]1C[C@H](N)[C@@H](O[C@H]2O[C@H](CN)[C@@H](O)[C@H](O)[C@H]2O)[C@H](O)[C@H]1O[C@H]1O[C@H](CO)[C@@H](O)[C@H](N)[C@H]1O [AN, amikacin]
susceptibility of all PSAE ([1]; all PSAE-containing respiratory specimens): susceptible | resistance phenotype result (S/R), MADM ([1]; specimen DH 430, Mini-BAL): S | resistance phenotype result (S/R), MADM ([1]; specimen DH 554, BAL): S | resistance phenotype result (S/R), MADM ([1]; specimen DH 641, Mini-BAL): S | resistance phenotype result (S/R), Cx ([2]; specimen DH 430, Mini-BAL): S | resistance phenotype result (S/R), Cx ([2]; specimen DH 554, BAL): S | resistance phenotype result (S/R), Cx ([2]; specimen DH 641, Mini-BAL): S | resistance phenotype result (S/R), MADM ([3]; ABCC-positive specimen (specimen name not given)): S | susceptibility of all ABCC ([3]; all ABCC-containing respiratory specimens): susceptible | Phenotype, sensitivity (growth in antibiotic) (Steno; [8]): growth, TZP- | Phenotype, sensitivity (growth in antibiotic) (Steno; [9]): growth, TZP-

CC(C)(O/N=C(\C(=O)N[C@@H]1C(=O)N2C(C(=O)[O-])=C(C[n+]3ccccc3)CS[C@H]12)c1csc(N)n1)C(=O)O [CAZ, ceftazidime]
Phenotype, sensitivity (growth in antibiotic) (Enteric): all growth | Phenotype, sensitivity (growth in antibiotic) (Steno; [8]): growth, TZP- | Phenotype, sensitivity (growth in antibiotic) (Steno; [9]): growth, TZP-

CCC[C@@H]1C[C@@H](C(=O)N[C@@H]([C@H]2O[C@H](SC)[C@H](O)[C@@H](O)[C@H]2O)[C@H](C)Cl)N(C)C1 [CLI, clindamycin]
resistance phenotype result (S/R), MADM ([4]; specimen DH 425, Mini-BAL): S | resistance phenotype result (S/R), MADM ([4]; specimen DH 427, Mini-BAL): S | resistance phenotype result (S/R), MADM ([4]; specimen DH 439, Mini-BAL): S | resistance phenotype result (S/R), MADM ([4]; specimen DH 440, BAL): S | resistance phenotype result (S/R), MADM ([4]; specimen DH 457, BAL): S | resistance phenotype result (S/R), MADM ([4]; specimen DH 485, BAL): S | resistance phenotype result (S/R), MADM ([4]; specimen DH 509, BAL): S | resistance phenotype result (S/R), MADM ([4]; specimen DH 514, Mini-BAL): S | resistance phenotype result (S/R), MADM ([4]; specimen DH 543, BAL): S | resistance phenotype result (S/R), MADM ([4]; specimen DH 550, BAL): S | resistance phenotype result (S/R), MADM ([4]; specimen DH 556, Mini-BAL): S | resistance phenotype result (S/R), MADM ([4]; specimen T12, ETA): S | resistance phenotype result (S/R), Cx ([5]; specimen DH 425, Mini-BAL): S | resistance phenotype result (S/R), Cx ([5]; specimen DH 427, Mini-BAL): S | resistance phenotype result (S/R), Cx ([5]; specimen DH 439, Mini-BAL): S | resistance phenotype result (S/R), Cx ([5]; specimen DH 440, BAL): S | resistance phenotype result (S/R), Cx ([5]; specimen DH 457, BAL): S | resistance phenotype result (S/R), Cx ([5]; specimen DH 485, BAL): S | resistance phenotype result (S/R), Cx ([5]; specimen DH 509, BAL): S | resistance phenotype result (S/R), Cx ([5]; specimen DH 514, Mini-BAL): S | resistance phenotype result (S/R), Cx ([5]; specimen DH 543, BAL): S | resistance phenotype result (S/R), Cx ([5]; specimen DH 550, BAL): S | resistance phenotype result (S/R), Cx ([5]; specimen DH 556, Mini-BAL): S | resistance phenotype result (S/R), Cx ([5]; specimen T12, ETA): S | Phenotype, sensitivity (STAU; Spec# 008-D7, BACcel ID STAU, 1.11 × 10^6 CFU/ml): (MRSA) CLI-R | Phenotype, sensitivity (STAU; Spec# 033-D7, BACcel ID STAU, 6.64 × 10^4 CFU/ml): MRSA, CLI-R

CCCCN1C(=O)C(=CC=Cc2c(O)n(CCCC)c(=O)n(CCCC)c2=O)C(=O)N(CCCC)C1=O [DiBAC4(3)]
cells stained (E. coli; heat-killed E. coli): 95% | cells stained (E. coli; overnight refrigerator stock (control) E. coli): 18.5%

C[C@@H](O)[C@H]1C(=O)N2C(C(=O)O)=C(S[C@@H]3CN[C@H](C(=O)Nc4cccc(C(=O)O)c4)C3)[C@H](C)[C@H]12 [ETP, ertapenem]
growth of susceptible (KPC-negative) strains ([6]; ETP at 16 μg/mL (FIG. 21)): fail to grow | growth morphology during drug exposure ([6]; KPC clinical isolate, ETP 16 μg/mL, 20 and 90 min of exposure (FIG. 20)): abnormal growth morphology

Cc1onc(-c2ccccc2)c1C(=O)N[C@@H]1C(=O)N2[C@@H]1SC(C)(C)[C@@H]2C(=O)O [OXA, oxacillin]
resistance phenotype result (S/R), Cx ([5]; specimen DH 425, Mini-BAL): S | resistance phenotype result (S/R), Cx ([5]; specimen DH 427, Mini-BAL): S | resistance phenotype result (S/R), Cx ([5]; specimen DH 439, Mini-BAL): R | resistance phenotype result (S/R), Cx ([5]; specimen DH 440, BAL): S | resistance phenotype result (S/R), Cx ([5]; specimen DH 457, BAL): S | resistance phenotype result (S/R), Cx ([5]; specimen DH 485, BAL): S | resistance phenotype result (S/R), Cx ([5]; specimen DH 509, BAL): S | resistance phenotype result (S/R), Cx ([5]; specimen DH 514, Mini-BAL): S | resistance phenotype result (S/R), Cx ([5]; specimen DH 543, BAL): S | resistance phenotype result (S/R), Cx ([5]; specimen DH 550, BAL): S | resistance phenotype result (S/R), Cx ([5]; specimen DH 556, Mini-BAL): S | resistance phenotype result (S/R), Cx ([5]; specimen T12, ETA): R | MRSA/MSSA call by oxacillin MIC (hospital AST) ([5]; the one discordant STAU sample): MSSA

Carboxyfluorescein diacetate [CFDA]
fluorescence of killed cells [7, 10]: demonstrated fluorescence

carboxyfluorescein diacetate succinimidyl ester [CFDA-SE]
fluorescence of killed cells [7, 10]: demonstrated fluorescence | fluorescence of killed cells ([7]; two hour post-heat-kill delay): no fluorescence was observed
